Reference: publication PMC4018220 (Transplantation, 2014)
Like-named read-outs stand apart in the source and are kept apart here.

Tests used:
[1] = clinical; conditions: human, in vivo
[2] = cited from earlier work
[3] = for Median [IQR] AUC: TAC, all weeks, dose and weight adjusted

C=CC[C@@H]1/C=C(\C)C[C@H](C)C[C@H](OC)[C@H]2O[C@@](O)(C(=O)C(=O)N3CCCC[C@H]3C(=O)O[C@H](/C(C)=C/[C@@H]3CC[C@@H](O)[C@H](OC)C3)[C@H](C)[C@@H](O)CC1=O)[C@H](C)C[C@@H]2OC [TAC, tacrolimus]
Tmax [1]: 2 to 3 h | Association of higher TAC levels with new onset DM (OR) ([2]; HCV-positive liver transplant, p=0.12): 2.21 | Correlation of higher TAC trough levels with rejection ([2]; NIH multicenter trial): decreased rejection rates | Change in AUC over time ([3]; NNRTIs dosed with TAC): No change | Increase over time of dose and weight adjusted AUC ([3]; TAC given with protease inhibitors with or without NNRTIs): ~ 30% | Change of Tmax over time ([3]; TAC with NNRTIs alone): decreased | Change of Tmax over time ([3]; TAC with combination PI+NNRTIs): doubled | Median [IQR] AUC ([3]; +NNRTI): 3142 [2121-5157] ng*hr/mL/mg/kg | Median [IQR] AUC ([3]; +PI): 26889 [17208-42250] ng*hr/mL/mg/kg | Median [IQR] AUC ([3]; +PI/NNRTI): 12587 [8524-18780] ng*hr/mL/mg/kg | Median Tac Cx ([3]; W2, C0, NNRTI (n=4)): 199 ng/mL/mg/kg | Median Tac Cx ([3]; W2, C0, PI (n=4)): 963 ng/mL/mg/kg | Median Tac Cx ([3]; W2, C1, NNRTI (n=4)): 225 ng/mL/mg/kg | Median Tac Cx ([3]; W2, C1, PI (n=4)): 1045 ng/mL/mg/kg | Median Tac Cx ([3]; W2, C2, NNRTI (n=4)): 338 ng/mL/mg/kg | Median Tac Cx ([3]; W2, C2, PI (n=4)): 1687 ng/mL/mg/kg | Median Tac Cx ([3]; W2, C3, NNRTI (n=4)): 280 ng/mL/mg/kg | Median Tac Cx ([3]; W2, C3, PI (n=4)): 2325 ng/mL/mg/kg | Median Tac Cx ([3]; W2, C4, NNRTI (n=4)): 272 ng/mL/mg/kg | Median Tac Cx ([3]; W2, C4, PI (n=4)): 2332 ng/mL/mg/kg | Median Tac Cx ([3]; W12, C0, NNRTI (n=4)): 213 ng/mL/mg/kg | Median Tac Cx ([3]; W12, C0, PI (n=4)): 638 ng/mL/mg/kg | Median Tac Cx ([3]; W12, C1, NNRTI (n=4)): 420 ng/mL/mg/kg | Median Tac Cx ([3]; W12, C1, PI (n=4)): 1590 ng/mL/mg/kg | Median Tac Cx ([3]; W12, C2, NNRTI (n=4)): 368 ng/mL/mg/kg | Median Tac Cx ([3]; W12, C2, PI (n=4)): 2049 ng/mL/mg/kg | Median Tac Cx ([3]; W12, C3, NNRTI (n=4)): 290 ng/mL/mg/kg | Median Tac Cx ([3]; W12, C3, PI (n=4)): 2341 ng/mL/mg/kg | Median Tac Cx ([3]; W12, C4, NNRTI (n=4)): 296 ng/mL/mg/kg | Median Tac Cx ([3]; W12, C4, PI (n=4)): 2550 ng/mL/mg/kg | Median Tac Cx ([3]; W28, C0, NNRTI (n=3)): 193 ng/mL/mg/kg | Median Tac Cx ([3]; W28, C1, NNRTI (n=3)): 497 ng/mL/mg/kg | Median Tac Cx ([3]; W28, C2, NNRTI (n=3)): 368 ng/mL/mg/kg | Median Tac Cx ([3]; W28, C3, NNRTI (n=3)): 275 ng/mL/mg/kg | Median Tac Cx ([3]; W28, C4, NNRTI (n=3)): 223 ng/mL/mg/kg | Median Tac Cx ([3]; W52, C0, NNRTI (n=4)): 148 ng/mL/mg/kg | Median Tac Cx ([3]; W52, C1, NNRTI (n=4)): 301 ng/mL/mg/kg | Median Tac Cx ([3]; W52, C2, NNRTI (n=4)): 322 ng/mL/mg/kg | Median Tac Cx ([3]; W52, C3, NNRTI (n=4)): 242 ng/mL/mg/kg | Median Tac Cx ([3]; W52, C4, NNRTI (n=4)): 208 ng/mL/mg/kg
